# Measurements from patent US10201531B2, “Indazolyl-oxo-isothiazole compounds” (MOCHIDA PHARMACEUTICAL CO., LTD., priority 2015, dated 2019).
# System: Nrf2
# Assay: Evaluation of Nrf2 activation ability (Nrf2d-LacZ / Keap1 HEK293 reporter, Beta-Glo luminescence)
# Format: cell-based, human
# Conditions: Pharmacological Test Example 1, rated A/B/C
# Experimental: HEK293 cells constantly expressing Nrf2d-LacZ (human Nrf2 degron region fused to LacZ; Hirotsu et al, Genes to Cell, Vol. 16, pp. 406-415 (2011)) and human Keap1 were seeded 7,000 cells/27 μl/well on 384-well plates (Corning 384 Well Flat Clear Bottom White Polystyrene TC-Treated Microplates, Cat. #3707), and cultured overnight at 5% CO2, 37° C. in DMEM medium containing 10% FBS, 100 U/mL penicillin and 100 μg/mL streptomycin. 3 μL/well of a 0.1% DMSO solution of the compound of the invention was added to the cells, which were then cultured for 3 hours at 5% CO2, 37° C. Beta-Glo® reagent (Promega, Beta-Glo Assay System, Cat. #E4740) was added 15 μL/well and incubated for 1 hour at room temperature, and luminescence intensity was measured with a luminometer. Using CDDO-Im as a standard, Nrf2 activation ability was calculated given 100% as the luminescence under stimulus with 100 nM CDDO-Im.
row,EC50 [µM],Compound
1,1 to 5,Cc1nn(-c2cc(O)n[s+]2[O-])c(C)c1C1=CCCCC1 (stereo not shown) [Example 315]
2,1 to 5,Cc1nn(-c2cc(O)n[s+]2[O-])c(C)c1C1=CCC(C)(C)CC1 (stereo not shown) [Example 316]

# Same assay, conditions: rated A/B/C, Pharmacological Test Example 1
row,Compound,EC50 [µM]
1,Cc1nc2c(cc1-c1ccc3c(cnn3-c3cc(O)n[s+]3[O-])c1)OCCN2C (stereo not shown) [Example 185],< 1
2,O=C1CCCN1c1ccc(-c2ccc3c(cnn3-c3cc(O)n[s+]3[O-])c2)cn1 (stereo not shown) [Example 186],< 1
3,CN1C(=O)C(C)(C)Oc2cc(-c3ccc4c(cnn4-c4cc(O)n[s+]4[O-])c3)cnc21 (stereo not shown) [Example 187],< 1
4,CN1CC(C)(C)Oc2cc(-c3ccc4c(cnn4-c4cc(O)n[s+]4[O-])c3)cnc21 (stereo not shown) [Example 188],< 1
5,CC1(C)CNc2ncc(-c3ccc4c(cnn4-c4cc(O)n[s+]4[O-])c3)cc2O1 (stereo not shown) [Example 189],< 1
6,[O-][s+]1nc(O)cc1-n1ncc2cc(-c3cnc4c(c3)OCCCN4)ccc21 (stereo not shown) [Example 190],< 1
7,COc1cccc2c1cnn2-c1cc(O)n[s+]1[O-] (stereo not shown) [Example 191],1 to 5
8,COc1cc(-c2cnc3c(c2)OCCN3C)cc2c1cnn2-c1cc(O)n[s+]1[O-] (stereo not shown) [Example 192],< 1
9,COc1cc(-c2ccc(N3CCCC3)nc2)cc2c1cnn2-c1cc(O)n[s+]1[O-] (stereo not shown) [Example 193],< 1
10,COc1cc(-c2ccnc(N3CCCC3)c2)cc2c1cnn2-c1cc(O)n[s+]1[O-] (stereo not shown) [Example 194],< 1
11,COc1cc(-c2cncc(C)c2)cc2c1cnn2-c1cc(O)n[s+]1[O-] (stereo not shown) [Example 195],1 to 5
12,COc1cc(C)c2cnn(-c3cc(O)n[s+]3[O-])c2c1 (stereo not shown) [Example 196],1 to 5
13,CN1C(=O)COc2cc(-c3ccc4c(cnn4-c4cc(O)n[s+]4[O-])c3)cnc21 (stereo not shown) [Example 197],< 1
14,COCC1CCCN1c1ccc(-c2ccc3c(cnn3-c3cc(O)n[s+]3[O-])c2)cn1 (stereo not shown) [Example 198],< 1
15,COc1cc(-c2cccnc2)cc2c1cnn2-c1cc(O)n[s+]1[O-] (stereo not shown) [Example 199],1 to 5
16,COc1cc(-c2ccncc2)cc2c1cnn2-c1cc(O)n[s+]1[O-] (stereo not shown) [Example 200],1 to 5
17,COc1cc(-c2cc(OC)c3cnn(-c4cc(O)n[s+]4[O-])c3c2)ccn1 (stereo not shown) [Example 201],< 1
18,COc1cc(-c2ccc(C3CC3)nc2)cc2c1cnn2-c1cc(O)n[s+]1[O-] (stereo not shown) [Example 203],< 1
19,CN1CCOc2cc(-c3ccc4c(cnn4-c4cc(O)n[s+]4[O-])c3)c(C(F)F)nc21 (stereo not shown) [Example 204],< 1
20,CN1CCCCOc2cc(-c3ccc4c(cnn4-c4cc(O)n[s+]4[O-])c3)cnc21 (stereo not shown) [Example 205],< 1
21,[O-][s+]1nc(O)cc1-n1ncc2cc(-c3cnc4c(c3)OCCCCN4)ccc21 (stereo not shown) [Example 206],< 1

row,Compound,EC50 [µM]
1,COc1c(Br)ccc2c1cnn2-c1cc(O)n[s+]1[O-] (stereo not shown) [Example 207],< 1
2,CN1CCCOc2cc(-c3ccc4c(cnn4-c4cc(O)n[s+]4[O-])c3)cnc21 (stereo not shown) [Example 209],< 1
3,CN1CCOc2nc(-c3ccc4c(cnn4-c4cc(O)n[s+]4[O-])c3)cnc21 (stereo not shown) [Example 210],< 1
4,COc1c(-c2cnc3c(c2)OCCN3C)ccc2c1cnn2-c1cc(O)n[s+]1[O-] (stereo not shown) [Example 211],< 1
5,[O-][s+]1nc(O)cc1-n1ncc2cc(-c3cnc4c(c3)OCC3CCCN43)ccc21 (stereo not shown) [Example 212],< 1
6,CN1c2ncc(-c3ccc4c(cnn4-c4cc(O)n[s+]4[O-])c3)cc2OCC1(C)C (stereo not shown) [Example 213],< 1
7,CN1CCOc2nc(-c3ccc4c(cnn4-c4cc(O)n[s+]4[O-])c3)ncc21 (stereo not shown) [Example 215],< 1
8,CN1CCOc2cc(-c3ccc4c(c3)c(C3CC3)nn4-c3cc(O)n[s+]3[O-])cnc21 (stereo not shown) [Example 216],1 to 5
9,CC1(C)COc2cc(-c3ccc4c(cnn4-c4cc(O)n[s+]4[O-])c3)cnc2N1 (stereo not shown) [Example 217],< 1
10,CN1C(=O)COc2nc(-c3ccc4c(cnn4-c4cc(O)n[s+]4[O-])c3)ncc21 (stereo not shown) [Example 218],1 to 5
11,[O-][s+]1nc(O)cc1-n1ncc2cc(-c3cc4c(cn3)NCCO4)ccc21 (stereo not shown) [Example 219],< 1
12,[O-][s+]1nc(O)cc1-n1ncc2cc(-c3cnc4c(c3)OCCO4)ccc21 (stereo not shown) [Example 220],< 1
13,CN1CCOc2cc(-c3ccc4c(c3)c(C#N)nn4-c3cc(O)n[s+]3[O-])cnc21 (stereo not shown) [Example 221],1 to 5
14,CN1CCOc2cc(-c3ccc4c(cnn4-c4cc(O)n[s+]4[O-])c3)ncc21 (stereo not shown) [Example 222],< 1
15,COc1nn(-c2cc(O)n[s+]2[O-])c2ccc(-c3cnc4c(c3)OCCN4C)cc12 (stereo not shown) [Example 223],1 to 5
16,Cn1nc(-c2ccc3c(cnn3-c3cc(O)n[s+]3[O-])c2)c2ccccc21 (stereo not shown) [Example 224],< 1
17,[O-][s+]1nc(O)cc1-n1ncc2cc(-c3cnn4cccnc34)ccc21 (stereo not shown) [Example 225],< 1
18,Cn1ccc(-c2ccc3c(cnn3-c3cc(O)n[s+]3[O-])c2)n1 (stereo not shown) [Example 226],< 1
19,[O-][s+]1nc(O)cc1-n1ncc2nc(Cl)ccc21 (stereo not shown) [Example 227],1 to 5
20,Cc1cc2cnn(-c3cc(O)n[s+]3[O-])c2cn1 (stereo not shown) [Example 229],1 to 5

# Continued, values first:
row,EC50 [µM],Compound
1,5 to 10,[O-][s+]1nc(O)cc1-n1ncc2ccncc21 (stereo not shown) [Example 231]
2,< 1,[O-][s+]1nc(O)cc1-n1ncc2cc(-c3ccccc3)ncc21 (stereo not shown) [Example 233]
3,1 to 5,[O-][s+]1nc(O)cc1-n1ncc2cc(Br)ncc21 (stereo not shown) [Example 234]
4,1 to 5,[O-][s+]1nc(O)cc1-n1ncc2cc(-c3cccnc3)ncc21 (stereo not shown) [Example 235]
5,1 to 5,[O-][s+]1nc(O)cc1-n1ncc2cc(C3=CCOCC3)ncc21 (stereo not shown) [Example 236]
6,< 1,[O-][s+]1nc(O)cc1-n1ncc2cc(-c3ccc(C4CC4)nc3)ncc21 (stereo not shown) [Example 237]
7,1 to 5,[O-][s+]1nc(O)cc1-n1ncc2cccnc21 (stereo not shown) [Example 238]
8,< 1,[O-][s+]1nc(O)cc1-n1ncc2c3ccccc3ncc21 (stereo not shown) [Example 239]
9,1 to 5,[O-][s+]1nc(O)cc1-n1ncc2nc(-c3ccc(N4CCCC4)nc3)ccc21 (stereo not shown) [Example 240]
10,1 to 5,[O-][s+]1nc(O)cc1-n1ncc2nc(-c3ccc(N4CCCCC4)nc3)ccc21 (stereo not shown) [Example 241]
11,< 1,COc1cc2cnn(-c3cc(O)n[s+]3[O-])c2cn1 (stereo not shown) [Example 242]
12,1 to 5,CC(C)(C)OC(=O)N1CCc2cn(-c3cc(O)n[s+]3[O-])nc2CC1 (stereo not shown) [Example 244]
13,1 to 5,CC(C)(C)OC(=O)N1Cc2cnn(-c3cc(O)n[s+]3[O-])c2C1 (stereo not shown) [Example 245]
14,1 to 5,CC(C)(C)OC(=O)N1Cc2cn(-c3cc(O)n[s+]3[O-])nc2C1 (stereo not shown) [Example 246]
15,1 to 5,CC(C)(C)OC(=O)N1CCc2c(cnn2-c2cc(O)n[s+]2[O-])C1 (stereo not shown) [Example 247]
16,1 to 5,CC(C)(C)OC(=O)N1CCc2nn(-c3cc(O)n[s+]3[O-])cc2C1 (stereo not shown) [Example 248]
17,1 to 5,CC(C)(C)OC(=O)N1CCCc2nn(-c3cc(O)n[s+]3[O-])cc2C1 (stereo not shown) [Example 250]
18,5 to 10,CC(C)(C)OC(=O)N1CCc2c(c(I)nn2-c2cc(O)n[s+]2[O-])C1 (stereo not shown) [Example 251]
19,1 to 5,[O-][s+]1nc(O)cc1-n1ncc2c1CCN(Cc1ccccc1)C2 (stereo not shown) [Example 252]
20,1 to 5,COc1ccc(CN2CCc3c(cnn3-c3cc(O)n[s+]3[O-])C2)cn1 (stereo not shown) [Example 261]

row,EC50 [µM],Compound
1,1 to 5,[O-][s+]1nc(O)cc1-n1ncc2c1CN(Cc1cnc3ccccc3c1)C2 (stereo not shown) [Example 263]
2,1 to 5,[O-][s+]1nc(O)cc1-n1ncc2c1CN(Cc1cccc(Oc3ccccc3)c1)C2 (stereo not shown) [Example 264]
3,5 to 10,[O-][s+]1nc(O)cc1-n1ncc2c1CN(Cc1ccc(C(F)(F)F)nc1)C2 (stereo not shown) [Example 265]
4,5 to 10,COc1ccc(CN2Cc3cnn(-c4cc(O)n[s+]4[O-])c3C2)cn1 (stereo not shown) [Example 266]
5,1 to 5,[O-][s+]1nc(O)cc1-n1cc2c(n1)CN(Cc1cccc(Oc3ccccc3)c1)C2 (stereo not shown) [Example 277]
6,1 to 5,[O-][s+]1nc(O)cc1-n1cccn1 (stereo not shown) [Example 284]
7,< 1,[O-][s+]1nc(O)cc1-n1ccc(-c2cccc(Br)c2)n1 (stereo not shown) [Example 286]
8,1 to 5,[O-][s+]1nc(O)cc1-n1cc(I)cn1 (stereo not shown) [Example 287]
9,< 1,[O-][s+]1nc(O)cc1-n1cc(-c2cccc(Br)c2)cn1 (stereo not shown) [Example 290]
10,< 1,[O-][s+]1nc(O)cc1-n1cc(C2=CCC(F)(F)CC2)cn1 (stereo not shown) [Example 301]
11,1 to 5,CC(C)(C)OC(=O)N1CC=C(c2cnn(-c3cc(O)n[s+]3[O-])c2)CC1 (stereo not shown) [Example 304]
12,1 to 5,Cc1nn(-c2cc(O)n[s+]2[O-])c(C)c1I (stereo not shown) [Example 305]
13,1 to 5,[O-][s+]1nc(O)cc1-n1cc(C2CCCCC2)cn1 (stereo not shown) [Example 306]
14,< 1,[O-][s+]1nc(O)cc1-n1cc(CCc2ccccc2)cn1 (stereo not shown) [Example 307]
15,5 to 10,[O-][s+]1nc(O)cc1-n1cc(C2CCOCC2)cn1 (stereo not shown) [Example 308]
16,1 to 5,Cc1cc(-c2ccccc2)nn1-c1cc(O)n[s+]1[O-] (stereo not shown) [Example 310]
17,5 to 10,Cc1nn(-c2cc(O)n[s+]2[O-])c(C)c1-c1ccccc1 (stereo not shown) [Example 311]
18,5 to 10,Cc1nn(-c2cc(O)n[s+]2[O-])c(C)c1C1=CCC(F)(F)CC1 (stereo not shown) [Example 312]
19,5 to 10,Cc1nn(-c2cc(O)n[s+]2[O-])c(C)c1C1=CCN(C(=O)OC(C)(C)C)CC1 (stereo not shown) [Example 313]
